Source: patent publication US8652769B2, “Methods for separating frozen-thawed spermatozoa into X-chromosome bearing and Y-chromosome bearing populations” (XY, LLC, priority 2000, dated 2014)
Marks after values point to notes of the source that are not given here.

Test system: oocytes inseminated with separated stained spermatozoa from frozen-thawed sperm
Assay: In-vitro fertilization: cleavage and development of oocytes inseminated with stained, flow-sorted frozen-thawed bull sperm
Assay type: cell-based, bovine
Experimental: As an example of an application of embodiments of the invention involving frozen bull sperm in IVF applications, sperm samples from two bulls were stained either at a concentration of 224 μM or 2,240 of Hoechst 33342 and the stained spermatozoa were then bulk sorted on a flow cytometer at 1000 sperm/sec into 2% egg yolk citrate. Spermatozoa were inseminated at 1×10^6/mL and embryos were cultured in the mSOF system described by Tervit H. R. et al., Successful Culture In-Vitro of Sheep and Cattle Ova, J. Reprod. Fertil., 30:493-497([…]), hereby incorporated by reference. Three replicates were carried out for bull 1 and one replicate for bull 2 (Table 1). With conventional procedures, blastocyst production with separated spermatozoa can be 70-90% of controls with spermatozoa that have not been separated.
As can be understood, it can take much longer to stain frozen-thawed sperm so that they can be resolved during separation at the lower stain concentration than at 10×stain concentration. The differences observed in cleavage rates between the two stain concentrations most likely can be attributed to the extended incubation time at the lower stain level.

[1] = Bull 1, 3 ejaculates, Hoechst 33342 conc. 224 μM, staining time required 190 min, 368 oocytes
[2] = Bull 1, 3 ejaculates, Hoechst 33342 conc. 2240 μM, staining time required 60 min, 373 oocytes
[3] = Bull 2, 1 ejaculate, Hoechst 33342 conc. 224 μM, staining time required 190 min, 86 oocytes
[4] = Bull 2, 1 ejaculate, Hoechst 33342 conc. 2240 μM, staining time required 60 min, 81 oocytes

`CCOc1ccc(-c2nc3ccc(-c4nc5ccc(N6CCN(C)CC6)cc5[nH]4)cc3[nH]2)cc1` [Hoechst 33342] was tested. Which “% blastocysts/oocyte” value [1] did it give?
The value was 17%.

And the “% cleave” value [1]?
The value was 44^a %.

And the “% blastocysts/oocyte” value [2]?
The value was 23%.

What about the “% cleave” value [2] of the same compound?
Its value is 60^b %.

What about the “% blastocysts/oocyte” value [3] of the same compound?
Its value is 0^a %.

What about the “% cleave” value [3] of the same compound?
The value was 23^a %.

What about the “% blastocysts/oocyte” value [4] of the same compound?
Its value is 16^b %.

And the “% cleave” value [4]?
Its value is 42^b %.

And the “effect of increased stain concentration on cleavage or embryonic development” value (stain concentration up to at least 2240 μM)?
Its value is “does not appear to have a depressive effect”.
